# Columns and labels:
# R0-3306 = compound: C1=CC2=C(C=CC(=C2)C=C3C(=O)NC(=NCC4=CC=CS4)S3)N=C1 [R0-3306]
# Paclitaxel = compound: CC(=O)O[C@H]1C(=O)[C@@]2(C)[C@H]([C@H](OC(=O)c3ccccc3)[C@]3(O)C[C@H](OC(=O)[C@H](O)[C@@H](NC(=O)c4ccccc4)c4ccccc4)C(C)=C1C3(C)C)[C@]1(OC(C)=O)CO[C@@H]1C[C@@H]2O [Paclitaxel]
# BSJ-03-123 [1] = compound: T1, CC(=O)c1c(C)c2cnc(Nc3ccc(N4CCN(CCOCCOCCOCCNC(=O)COc5cccc6c5C(=O)N(C5CCC(=O)NC5=O)C6=O)CC4)cn3)nc2n(C2CCCC2)c1=O [BSJ-03-123]
# BVD523 = compound: CC(C)Nc1cc(-c2c[nH]c(C(=O)N[C@H](CO)c3cccc(Cl)c3)c2)c(Cl)cn1 [BVD523]
# [2] = compound: CCC1=CN=CN=C1N2CCN(CC2)CC3=NC4=C(N3)C=C(C=C4)C(F)(F)F
# Neratinib/HKI272 = compound: CCOc1cc2ncc(C#N)c(Nc3ccc(OCc4ccccn4)c(Cl)c3)c2cc1NC(=O)/C=C/CN(C)C [Neratinib/HKI272]
# Flavopiridol [3] = compound: T2, CN1CC[C@H](c2c(O)cc(O)c3c(=O)cc(-c4ccccc4Cl)oc23)[C@H](O)C1 [Flavopiridol]
# [4] = compound: CO[C@@H](C)Cn1c(=O)n(C)c2cnc3ccc(-c4cncc(C(C)(C)O)c4)cc3c21
# AZD5363 = compound: NC1(C(=O)N[C@@H](CCO)c2ccc(Cl)cc2)CCN(c2nc[nH]c3nccc2-3)CC1 [AZD5363]
# YKL-5-124 = compound: C=CC(=O)Nc1ccc(C(=O)Nc2[nH]nc3c2CN(C(=O)N[C@H](CN(C)C)c2ccccc2)C3(C)C)cc1 [YKL-5-124]; assay: GR value, 72 h; higher = faster growth (1 = untreated, <0 = killing);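 note: breast cancer and non-malignant breast epithelial lines, nine half-log doses, viable cells counted by Hoechst and LIVE/DEAD dye imaging versus time-zero plates and DMSO controls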
# BSJ-03-123 [5] = compound: T1, BSJ-03-123; assay: as above
# [6] = compound: CCN1CCN(Cc2ccc(Nc3ncc(F)c(-c4cc(F)c5nc(C)n(C(C)C)c5c4)n3)nc2)CC1; assay: as above
# [7] = compound: CCc1cnn2c(NCc3ccc[n+]([O-])c3)cc(N3CCCC[C@H]3CCO)nc12; assay: as above
# LEE011/Ribociclib = compound: CN(C)C(=O)c1cc2cnc(Nc3ccc(N4CCNCC4)cn3)nc2n1C1CCCC1 [LEE011/Ribociclib]; assay: as above
# THZ531 = compound: CN(C)C/C=C/C(=O)Nc1ccc(C(=O)N2CCC[C@@H](Nc3ncc(Cl)c(-c4c[nH]c5ccccc45)n3)C2)cc1 [THZ531]; assay: as above
# THZ1 = compound: CN(C)C/C=C/C(=O)Nc1ccc(C(=O)Nc2cccc(Nc3ncc(Cl)c(-c4c[nH]c5ccccc45)n3)c2)cc1 [THZ1]; assay: as above
# Flavopiridol [8] = compound: T2, Flavopiridol; assay: as above
# 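Throughout, for GR50, 72 h: breast cancer and non-malignant breast epithelial cell lines, Deep Dye Drop or Dye Drop imaging, nine half-log doses, GR normalized to time-zero plates and DMSO-only controls.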
cell line,measurement,setting,value
MCF7,"GR50, 72 h",R0-3306,6.26 µM
same,"GR50, 72 h",Paclitaxel,0.00138 µM
same,"GR50, 72 h",BSJ-03-123 [1],1.42 µM
same,"GR50, 72 h",BVD523,3.8 µM
same,"GR50, 72 h",[2],> 10 µM
same,"GR50, 72 h",Neratinib/HKI272,1.26 µM
same,"GR50, 72 h",Flavopiridol [3],0.0847 µM
same,"GR50, 72 h",[4],< 0.001 µM
same,"GR50, 72 h",AZD5363,> 10 µM
same,GR value,YKL-5-124; 0.001 µM,0.557 GR
same,GR value,YKL-5-124; 0.003162 µM,0.403 GR
same,GR value,YKL-5-124; 0.01 µM,0.316 GR
same,GR value,YKL-5-124; 0.03162 µM,0.266 GR
same,GR value,YKL-5-124; 0.1 µM,0.18 GR
same,GR value,YKL-5-124; 0.3162 µM,0.0831 GR
same,GR value,YKL-5-124; 1 µM,0.131 GR
same,GR value,YKL-5-124; 3.162 µM,0.0763 GR
same,GR value,YKL-5-124; 10 µM,-0.269 GR
same,GR value,BSJ-03-123 [5]; 0.001 µM,0.928 GR
same,GR value,BSJ-03-123 [5]; 0.003162 µM,0.899 GR
same,GR value,BSJ-03-123 [5]; 0.01 µM,0.858 GR
same,GR value,BSJ-03-123 [5]; 0.03162 µM,0.784 GR
same,GR value,BSJ-03-123 [5]; 0.1 µM,0.789 GR
same,GR value,BSJ-03-123 [5]; 0.3162 µM,0.727 GR
same,GR value,BSJ-03-123 [5]; 1 µM,0.604 GR
same,GR value,BSJ-03-123 [5]; 3.162 µM,0.544 GR
same,GR value,BSJ-03-123 [5]; 10 µM,-0.327 GR
same,GR value,[6]; 0.001 µM,0.893 GR
same,GR value,[6]; 0.003162 µM,0.789 GR
same,GR value,[6]; 0.01 µM,0.512 GR
same,GR value,[6]; 0.03162 µM,0.349 GR
same,GR value,[6]; 0.1 µM,0.236 GR
same,GR value,[6]; 0.3162 µM,0.235 GR
same,GR value,[6]; 1 µM,0.0993 GR
same,GR value,[6]; 3.162 µM,-0.189 GR
same,GR value,[6]; 10 µM,-0.268 GR
same,GR value,[7]; 0.0001 µM,1.02 GR
same,GR value,[7]; 0.0003162 µM,0.997 GR
same,GR value,[7]; 0.001 µM,0.979 GR
same,GR value,[7]; 0.003162 µM,0.967 GR
same,GR value,[7]; 0.01 µM,0.3 GR
same,GR value,[7]; 0.03162 µM,-0.247 GR
same,GR value,[7]; 0.1 µM,-0.276 GR
same,GR value,[7]; 0.3162 µM,-0.241 GR
same,GR value,[7]; 1 µM,-0.255 GR
same,GR value,LEE011/Ribociclib; 0.001 µM,0.87 GR
same,GR value,LEE011/Ribociclib; 0.003162 µM,0.786 GR
same,GR value,LEE011/Ribociclib; 0.01 µM,0.682 GR
same,GR value,LEE011/Ribociclib; 0.03162 µM,0.651 GR
same,GR value,LEE011/Ribociclib; 0.1 µM,0.53 GR
same,GR value,LEE011/Ribociclib; 0.3162 µM,0.414 GR
same,GR value,LEE011/Ribociclib; 1 µM,0.407 GR
same,GR value,LEE011/Ribociclib; 3.162 µM,0.275 GR
same,GR value,LEE011/Ribociclib; 10 µM,0.295 GR
same,GR value,THZ531; 0.0001 µM,0.957 GR
same,GR value,THZ531; 0.0003162 µM,1.06 GR
same,GR value,THZ531; 0.001 µM,0.957 GR
same,GR value,THZ531; 0.003162 µM,1.02 GR
same,GR value,THZ531; 0.01 µM,1.08 GR
same,GR value,THZ531; 0.03162 µM,0.827 GR
same,GR value,THZ531; 0.1 µM,0.225 GR
same,GR value,THZ531; 0.3162 µM,-0.0791 GR
same,GR value,THZ531; 1 µM,-0.391 GR
same,GR value,THZ1; 0.0001 µM,1.08 GR
same,GR value,THZ1; 0.0003162 µM,0.931 GR
same,GR value,THZ1; 0.001 µM,0.926 GR
same,GR value,THZ1; 0.003162 µM,0.941 GR
same,GR value,THZ1; 0.01 µM,0.78 GR
same,GR value,THZ1; 0.03162 µM,0.366 GR
same,GR value,THZ1; 0.1 µM,-0.103 GR
same,GR value,THZ1; 0.3162 µM,-0.305 GR
same,GR value,THZ1; 1 µM,-0.461 GR
same,GR value,Flavopiridol [8]; 0.0001 µM,1.08 GR
same,GR value,Flavopiridol [8]; 0.0003162 µM,0.929 GR
same,GR value,Flavopiridol [8]; 0.001 µM,0.872 GR
same,GR value,Flavopiridol [8]; 0.003162 µM,0.964 GR
same,GR value,Flavopiridol [8]; 0.01 µM,0.873 GR
same,GR value,Flavopiridol [8]; 0.03162 µM,0.834 GR
same,GR value,Flavopiridol [8]; 0.1 µM,0.424 GR
same,GR value,Flavopiridol [8]; 0.3162 µM,-0.258 GR
same,GR value,Flavopiridol [8]; 1 µM,-0.272 GR
SUM190PT,"GR50, 72 h",R0-3306,4.76 µM
same,"GR50, 72 h",Paclitaxel,0.000878 µM
same,"GR50, 72 h",BSJ-03-123 [1],0.0593 µM
same,"GR50, 72 h",BVD523,3.33 µM
same,"GR50, 72 h",[2],9.17 µM
same,"GR50, 72 h",Neratinib/HKI272,1.88 µM
same,"GR50, 72 h",Flavopiridol [3],0.0802 µM
same,"GR50, 72 h",[4],< 0.001 µM
same,"GR50, 72 h",AZD5363,2.35 µM
same,GR value,YKL-5-124; 0.001 µM,0.557 GR
same,GR value,YKL-5-124; 0.003162 µM,0.365 GR
same,GR value,YKL-5-124; 0.01 µM,0.267 GR
same,GR value,YKL-5-124; 0.03162 µM,0.198 GR
same,GR value,YKL-5-124; 0.1 µM,0.212 GR
same,GR value,YKL-5-124; 0.3162 µM,0.0489 GR
same,GR value,YKL-5-124; 1 µM,0.154 GR
same,GR value,YKL-5-124; 3.162 µM,0.102 GR
same,GR value,YKL-5-124; 10 µM,-0.42 GR
same,GR value,BSJ-03-123 [5]; 0.001 µM,0.831 GR
same,GR value,BSJ-03-123 [5]; 0.003162 µM,0.729 GR
same,GR value,BSJ-03-123 [5]; 0.01 µM,0.533 GR
same,GR value,BSJ-03-123 [5]; 0.03162 µM,0.491 GR
same,GR value,BSJ-03-123 [5]; 0.1 µM,0.451 GR
same,GR value,BSJ-03-123 [5]; 0.3162 µM,0.371 GR
same,GR value,BSJ-03-123 [5]; 1 µM,0.396 GR
same,GR value,BSJ-03-123 [5]; 3.162 µM,0.354 GR
same,GR value,BSJ-03-123 [5]; 10 µM,-0.286 GR
same,GR value,[6]; 0.001 µM,0.779 GR
same,GR value,[6]; 0.003162 µM,0.586 GR
same,GR value,[6]; 0.01 µM,0.444 GR
same,GR value,[6]; 0.03162 µM,0.349 GR
same,GR value,[6]; 0.1 µM,0.395 GR
same,GR value,[6]; 0.3162 µM,0.309 GR
same,GR value,[6]; 1 µM,0.343 GR
same,GR value,[6]; 3.162 µM,0.259 GR
same,GR value,[6]; 10 µM,-0.611 GR
same,GR value,[7]; 0.0001 µM,0.917 GR
same,GR value,[7]; 0.0003162 µM,0.931 GR
same,GR value,[7]; 0.001 µM,0.951 GR
same,GR value,[7]; 0.003162 µM,1.06 GR
same,GR value,[7]; 0.01 µM,0.98 GR
same,GR value,[7]; 0.03162 µM,-0.207 GR
same,GR value,[7]; 0.1 µM,-0.627 GR
same,GR value,[7]; 0.3162 µM,-0.643 GR
same,GR value,[7]; 1 µM,-0.724 GR
same,GR value,LEE011/Ribociclib; 0.001 µM,0.777 GR
same,GR value,LEE011/Ribociclib; 0.003162 µM,0.632 GR
same,GR value,LEE011/Ribociclib; 0.01 µM,0.576 GR
same,GR value,LEE011/Ribociclib; 0.03162 µM,0.542 GR
same,GR value,LEE011/Ribociclib; 0.1 µM,0.453 GR
same,GR value,LEE011/Ribociclib; 0.3162 µM,0.46 GR
same,GR value,LEE011/Ribociclib; 1 µM,0.0072 GR
same,GR value,LEE011/Ribociclib; 3.162 µM,0.199 GR
same,GR value,LEE011/Ribociclib; 10 µM,0.383 GR
same,GR value,THZ531; 0.0001 µM,1.07 GR
same,GR value,THZ531; 0.0003162 µM,0.955 GR
same,GR value,THZ531; 0.001 µM,0.949 GR
same,GR value,THZ531; 0.003162 µM,0.966 GR
same,GR value,THZ531; 0.01 µM,1.12 GR
same,GR value,THZ531; 0.03162 µM,0.889 GR
same,GR value,THZ531; 0.1 µM,-0.322 GR
same,GR value,THZ531; 0.3162 µM,-0.725 GR
same,GR value,THZ531; 1 µM,-0.492 GR
same,GR value,THZ1; 0.0001 µM,1.05 GR
same,GR value,THZ1; 0.0003162 µM,0.839 GR
same,GR value,THZ1; 0.001 µM,0.923 GR
same,GR value,THZ1; 0.003162 µM,0.842 GR
same,GR value,THZ1; 0.01 µM,0.0733 GR
same,GR value,THZ1; 0.03162 µM,-0.46 GR
same,GR value,THZ1; 0.1 µM,-0.462 GR
same,GR value,THZ1; 0.3162 µM,-0.331 GR
same,GR value,THZ1; 1 µM,-0.467 GR
same,GR value,Flavopiridol [8]; 0.0001 µM,0.999 GR
same,GR value,Flavopiridol [8]; 0.0003162 µM,1.06 GR
same,GR value,Flavopiridol [8]; 0.001 µM,0.935 GR
same,GR value,Flavopiridol [8]; 0.003162 µM,0.883 GR
same,GR value,Flavopiridol [8]; 0.01 µM,0.661 GR
same,GR value,Flavopiridol [8]; 0.03162 µM,0.785 GR
same,GR value,Flavopiridol [8]; 0.1 µM,0.58 GR
same,GR value,Flavopiridol [8]; 0.3162 µM,0.0012 GR
same,GR value,Flavopiridol [8]; 1 µM,-0.382 GR
